Source: patent US20240252474A1, “METHODS AND COMPOSITIONS COMPRISING A CARDIO-TOLERATED HDAC INHIBITOR” (HUYABIO International, LLC, priority 2023, published 2024)

Assay: Phase 1b safety and tolerability of HBI-8000 combined with nivolumab (DLTs, TEAEs)
Type: in vivo
Details: 40 mg HBI-8000 BIW + nivolumab, N = 7
Procedure: The present example, was a Phase Ib/2 open-label dose finding study for HBI-8000 (also referred to in the art as “chidamide” or “tucidinostat” and also referred to herein as a compound of formula I) in combination with nivolumab in patients with advanced solid tumors, including melanoma, RCC (renal cell carcinoma), and NSCLC (non-small cell lung cancer). This study was conducted in accordance with Good Clinical Practice guidelines and the Declaration of Helsinki and with assurance/approval from the US Department of Health and Human Services; the protocol was approved by the institutional review boards or ethics committees of all participating sites. All patients provided written informed consent to participate before enrollment. […]
HBI-8000 at three dose levels (20 mg, 30 mg, and 40 mg) given orally twice a week (BIW) were evaluated. Doses were taken approximate 30 minutes after a meal. The starting dose (20 mg) was selected based on pharmacokinetic profiles established for monotherapy in Japanese patients with T-cell lymphoma.
The decision to escalate the dose was based on the conventional 3+3 design and observed incidences of dose-limiting toxicities (DLTs). Each treatment cycle was defined as 28 days. […] Subjects experiencing DLT within the first two weeks after having received 100% of assigned dose of HBI-8000 are also evaluable for DLT. Unacceptable toxicities were defined as grade 3 or higher non-hematologic and hematologic toxicities with clinical complications. Unacceptable toxicities observed over the first 28 days following HBI-8000 administration were considered as DLTs. […] HBI-8000 administration continued until disease progression or unacceptable toxicity was observed. The efficacy of the combination was further evaluated in an expanded cohort of selected patient populations at RP2D based on an objective response rate according to Response Evaluation Criteria in Solid Tumors (RECIST) version 1.1 criteria, progression-free survival, and duration of responses.
Safety evaluations included physical examinations, vital signs, ECGs, ECOG performance status, and laboratory tests.
Statistical analyses of safety, tolerability, and anti-tumor activity were primarily descriptive in nature. Toxicities were tabulated by type and grade. The safety population included all patients who received ≥1 dose of HBI-8000 and nivolumab. Continuous variables were summarized using descriptive statistics and categorical variables were summarized with number and percentage at each category. Pharmacokinetic parameters were derived using noncompartmental methods with Phoenix® WinNonlin® Version 6.4 (Certara, L. P., Princeton, NJ, USA).

For `Nc1cc(F)ccc1NC(=O)c1ccc(CNC(=O)/C=C/c2cccnc2)cc1` [HBI-8000, N-(2-amino-4-fluorophenyl)-4-[[[(2E)-1-oxo-3-(3-pyridinyl)-2-propen-1-yl]amino]methyl]benzamide], the “Any SAE, number of subjects” value was 4 n, the “Any TEAE, number of subjects” value was 7 n and the “Aspartate aminotransferase increased, All, G < 3” value was 1 (14) n (%). For the same molecule, the “Aspartate aminotransferase increased, Related Both, Any G” value was 1 (14) n (%), the “Atrial fibrillation, All, G < 3” value was 2 (29) n (%) and the “Atrial fibrillation, All, G ≥ 3” value was 1 (14) n (%). The “Atrial fibrillation, Related Both, Any G” value was 1 (14) n (%), the “Contusion, All, G < 3” value was 3 (43) n (%) and the “Contusion, Related Both, Any G” value was 2 (29) n (%). For the same molecule, the “Contusion, Related HBI, Any G” value was 1 (14) n (%), the “Decreased appetite, All, G < 3” value was 3 (43) n (%) and the “Decreased appetite, All, G ≥ 3” value was 1 (14) n (%). The “Decreased appetite, Related Both, Any G” value was 1 (14) n (%), the “Decreased appetite, Related HBI, Any G” value was 2 (29) n (%) and the “Dehydration, All, G < 3” value was 2 (29) n (%). The “Diarrhoea, All, G < 3” value was 2 (29) n (%), the “Diarrhoea, All, G ≥ 3” value was 1 (14) n (%) and the “Diarrhoea, Related Both, Any G” value was 2 (29) n (%). For the same molecule, the “Diarrhoea, Related HBI, Any G” value was 1 (14) n (%), the “Dizziness, All, G < 3” value was 2 (29) n (%) and the “Dizziness, Related Both, Any G” value was 1 (14) n (%). For the same molecule, the “Dizziness, Related HBI, Any G” value was 1 (14) n (%), the “Dyspnoea, All, G < 3” value was 3 (43) n (%) and the “Dyspnoea, All, G ≥ 3” value was 1 (14) n (%). The “Dyspnoea, Related Both, Any G” value was 1 (14) n (%), the “Fall, All, G < 3” value was 2 (29) n (%) and the “Fatigue, All, G < 3” value was 2 (29) n (%). The “Fatigue, All, G ≥ 3” value was 2 (29) n (%), the “Fatigue, Related Both, Any G” value was 2 (29) n (%) and the “Fatigue, Related HBI, Any G” value was 1 (14) n (%). The “Headache, All, G < 3” value was 1 (14) n (%), the “Headache, All, G ≥ 3” value was 1 (14) n (%) and the “Headache, Related Both, Any G” value was 1 (14) n (%). The “Headache, Related HBI, Any G” value was 1 (14) n (%), the “Hypocalcaemia, All, G < 3” value was 2 (29) n (%) and the “Hypocalcaemia, Related Both, Any G” value was 1 (14) n (%). The “Hypocalcaemia, Related HBI, Any G” value was 1 (14) n (%), the “Hypokalemia, All, G < 3” value was 1 (14) n (%) and the “Hypokalemia, Related Both, Any G” value was 1 (14) n (%). The “Hypophosphataemia, All, G < 3” value was 2 (29) n (%), the “Hypophosphataemia, Related Both, Any G” value was 1 (14) n (%) and the “Hypophosphataemia, Related HBI, Any G” value was 1 (14) n (%). The “Hypotension, All, G < 3” value was 3 (43) n (%), the “Hypotension, Related Both, Any G” value was 1 (14) n (%) and the “Lipase increased, All, G < 3” value was 1 (14) n (%). The “Lipase increased, Related Both, Any G” value was 1 (14) n (%), the “Lymphocyte count decreased, All, G < 3” value was 2 (29) n (%) and the “Lymphocyte count decreased, Related Both, Any G” value was 2 (29) n (%). For the same molecule, the “Nausea, All, G < 3” value was 3 (43) n (%), the “Nausea, Related Both, Any G” value was 2 (29) n (%) and the “Nausea, Related HBI, Any G” value was 2 (29) n (%). The “Neutrophil count decreased, All, G < 3” value was 2 (29) n (%), the “Neutrophil count decreased, All, G ≥ 3” value was 1 (14) n (%) and the “Neutrophil count decreased, Related Both, Any G” value was 1 (14) n (%). The “Neutrophil count decreased, Related HBI, Any G” value was 1 (14) n (%), the “Non-cardiac chest pain, All, G < 3” value was 2 (29) n (%) and the “Non-cardiac chest pain, Related HBI, Any G” value was 1 (14) n (%). For the same molecule, the “Oedema peripheral, All, G < 3” value was 2 (29) n (%), the “Oedema peripheral, Related Both, Any G” value was 1 (14) n (%) and the “Platelet count decreased, All, G < 3” value was 3 (43) n (%). The “Platelet count decreased, Related Both, Any G” value was 1 (14) n (%).
